These results are taken from ChEMBL document CHEMBL4316626, “N-Acyl pyrazoles: Effective and tunable inhibitors of serine hydrolases” (Bioorg Med Chem, 2019).

Where only a bound is given, the exact number is not on record here.

The nature of this assay: Inhibition of recombinant rat FAAH deltaTM mutant expressed in Escherichia coli using 14C-labeled oleamide as substrate preincubated for 3 hrs followed by substrate addition and measured by TLC based Dixon-plot analysis. Conditions: read-out: Ki(app).
As for `O=C(N1CCCN(Cc2ccc(Oc3ccccc3)cc2)CC1)n1cccn1`, the Ki came out at 9.3 nM.

In the case of `Cc1ccc(COC(=O)n2cc(C#N)cn2)cc1`, the Ki is more than 5000 nM.

As to `N#Cc1cnn(C(=O)N2CCN(Cc3ccccc3)CC2)c1`, the Ki was determined as 75 nM.

In the case of `CC(C)(C)OC(=O)N1CCN(C(=O)n2cccn2)CC1`, the Ki was 340 nM.

`N#Cc1cnn(C(=O)Cc2ccc3ccccc3c2)c1`: the Ki is more than 5000 nM.

On to `N#Cc1cnn(C(=O)N2CCN(Cc3cccc(OCc4ccccc4)c3)CC2)c1`, for which the Ki stood at 0.15 nM.

With `CN(CCN(C)C(=O)n1cc(C#N)cn1)Cc1cccc(Oc2ccccc2)c1`, the Ki came out at 1.2 nM.

Regarding `N#Cc1cnn(C(=O)OCc2ccc(Oc3ccccc3)cc2)c1`, the Ki amounted to 60 nM.

`Cc1cnn(C(=O)N(C)CCN(C)Cc2cccc(Oc3ccccc3)c2)c1`: the Ki came out at 20 nM.

As to `Cc1cnn(C(=O)NCc2ccc3ccccc3c2)c1`, the Ki is more than 5000 nM.

Take `Cc1cnn(C(=O)N2CCCN(Cc3ccc(Oc4ccccc4)cc3)CC2)c1`: the Ki was found to be 110 nM.

With `O=C(OCc1ccc(-c2ccccc2)cc1)n1cccn1`, the Ki is more than 5000 nM.

For the compound `CN(CCN(C)C(=O)n1cc(C#N)cn1)Cc1ccc(Oc2ccccc2)cc1`, the Ki was 2 nM.

For the compound `Cc1cnn(C(=O)NCCCCc2ccccc2)c1`, the Ki is 550 nM.

`O=C(NCCCc1ccccc1)n1cccn1`: the Ki came out at 980 nM.

`N#Cc1cnn(C(=O)N2CCCN(Cc3ccc(Oc4ccccc4)cc3)CC2)c1`: the Ki was 1 nM.

On to `N#Cc1cnn(C(=O)Oc2ccc3ccccc3c2)c1`, for which the Ki was more than 5000 nM.

As for `N#Cc1cnn(C(=O)CCCCCCc2ccccc2)c1`, the Ki is more than 5000 nM.

Regarding `Cc1cnn(C(=O)NCCCCCc2ccccc2)c1`, the Ki amounted to 560 nM.

Consider `O=C(OCCCc1ccccc1)n1cccn1`, for which the Ki is more than 5000 nM.

For `O=C(NCCCCCc1ccccc1)n1cccn1`, the Ki amounted to 280 nM.

Take `Cc1cnn(C(=O)N2CCN(Cc3cccc(OCc4ccccc4)c3)CC2)c1`: the Ki came to 25 nM.

Regarding `Cc1cnn(C(=O)OCc2ccc(Oc3ccccc3)cc2)c1`, the Ki was found to be 580 nM.

Consider `Cc1cnn(C(=O)NCc2ccc(-c3ccccc3)cc2)c1`, for which the Ki was more than 5000 nM.

`O=C(Oc1ccc2ccccc2c1)n1cccn1`: the Ki was more than 5000 nM.

In the case of `Cc1cnn(C(=O)OCc2ccc(-c3ccccc3)cc2)c1`, the Ki is more than 5000 nM.

Take `O=C(OCc1ccc2ccccc2c1)n1cccn1`: the Ki was more than 5000 nM.

For `Cc1cnn(C(=O)CCCCCCc2ccccc2)c1`, the Ki is more than 5000 nM.

With `Cc1cnn(C(=O)OCc2ccc3ccccc3c2)c1`, the Ki was more than 5000 nM.

On to `N#Cc1cnn(C(=O)Nc2ccc3ccccc3c2)c1`, for which the Ki was more than 5000 nM.

Turning to `Cc1ccc(CNC(=O)n2cc(C)cn2)cc1`, the Ki is more than 5000 nM.

With `CN(CCN(C)C(=O)n1cccn1)Cc1ccc(Oc2ccccc2)cc1`, the Ki is 10 nM.

Turning to `CC(C)(C)OC(=O)N1CCCN(C(=O)n2cc(C#N)cn2)CC1`, the Ki is 50 nM.

Consider `O=C(N1CCN(Cc2cccc(Oc3ccccc3)c2)CC1)n1cccn1`, for which the Ki worked out at 6.1 nM.

As to `CN(CCN(C)C(=O)n1cccn1)Cc1cccc(Oc2ccccc2)c1`, the Ki amounted to 5.7 nM.

On to `N#Cc1cnn(C(=O)OCCCCc2ccccc2)c1`, for which the Ki worked out at 210 nM.

On to `Cc1cnn(C(=O)CCCCc2ccccc2)c1`, for which the Ki was more than 5000 nM.

Consider `Cc1ccc(CNC(=O)n2cccn2)cc1`, for which the Ki was more than 5000 nM.

Regarding `Cc1cnn(C(=O)N2CCCN(Cc3cccc(OCc4ccccc4)c3)CC2)c1`, the Ki is 210 nM.

Consider `O=C(Cc1ccc2ccccc2c1)n1cccn1`, for which the Ki is more than 5000 nM.

Consider `N#Cc1cnn(C(=O)NCc2ccc(Oc3ccccc3)cc2)c1`, for which the Ki was determined as 9.8 nM.

As to `Cc1cnn(C(=O)N(C)CCN(C)C(=O)OC(C)(C)C)c1`, the Ki came out at 710 nM.

Turning to `O=C(N1CCN(Cc2cccc(OCc3ccccc3)c2)CC1)n1cccn1`, the Ki turned out to be 5.8 nM.

With `N#Cc1cnn(C(=O)N2CCCN(Cc3cccc(Oc4ccccc4)c3)CC2)c1`, the Ki amounted to 0.23 nM.

As to `N#Cc1cnn(C(=O)NCCCCc2ccccc2)c1`, the Ki is 18 nM.

In the case of `O=C(N1CCN(Cc2ccccc2)CC1)n1cccn1`, the Ki came out at 180 nM.

Regarding `Cc1cnn(C(=O)NCCCc2ccccc2)c1`, the Ki turned out to be 3000 nM.

On to `Cc1cnn(C(=O)N2CCCN(C(=O)OC(C)(C)C)CC2)c1`, for which the Ki came out at 2900 nM.

On to `O=C(Nc1ccc2ccccc2c1)n1cccn1`, for which the Ki was more than 5000 nM.

Turning to `N#Cc1cnn(C(=O)NCCCc2ccccc2)c1`, the Ki amounted to 340 nM.

As for `COC(=O)c1cnn(C(=O)N2CCN(Cc3ccc4ccccc4c3)CC2)c1`, the Ki turned out to be 0.36 nM.

For `N#Cc1cnn(C(=O)N2CCN(Cc3cccc(Oc4ccccc4)c3)CC2)c1`, the Ki was 0.19 nM.

For `N#Cc1cnn(C(=O)NCc2ccc3ccccc3c2)c1`, the Ki was more than 5000 nM.

As for `Cc1cnn(C(=O)N(C)CCN(C)Cc2ccc(Oc3ccccc3)cc2)c1`, the Ki is 55 nM.

As for `CN(CCN(C)C(=O)n1cccn1)C(=O)OC(C)(C)C`, the Ki stood at 80 nM.

`N#Cc1cnn(C(=O)CCCCc2ccccc2)c1`: the Ki is more than 5000 nM.

Take `O=C(NCc1ccc2ccccc2c1)n1cccn1`: the Ki was more than 5000 nM.

Consider `N#Cc1cnn(C(=O)NCCCCCc2ccccc2)c1`, for which the Ki was determined as 18 nM.

As to `O=C(NCCCCc1ccccc1)n1cccn1`, the Ki was determined as 290 nM.

As to `N#Cc1cnn(C(=O)NCc2ccc(-c3ccccc3)cc2)c1`, the Ki is more than 5000 nM.

Take `Cc1cnn(C(=O)OCCCCc2ccccc2)c1`: the Ki is more than 5000 nM.

`N#Cc1cnn(C(=O)OCc2ccc(OCc3ccccc3)cc2)c1`: the Ki is 145 nM.

On to `Cc1cnn(C(=O)CCCCCc2ccccc2)c1`, for which the Ki was more than 5000 nM.

As to `N#Cc1cnn(C(=O)N2CCN(Cc3ccc(-c4ccccc4)cc3)CC2)c1`, the Ki worked out at 0.19 nM.

As for `O=C(CCCCc1ccccc1)n1cccn1`, the Ki is more than 5000 nM.

Take `Cc1cnn(C(=O)N2CCN(Cc3ccc(-c4ccccc4)cc3)CC2)c1`: the Ki turned out to be 170 nM.

On to `O=C(OCCCCCc1ccccc1)n1cccn1`, for which the Ki is more than 5000 nM.

With `Cc1cnn(C(=O)OCc2ccc(OCc3ccccc3)cc2)c1`, the Ki is 1260 nM.

Turning to `Cc1cnn(C(=O)Cc2ccc(-c3ccccc3)cc2)c1`, the Ki was more than 5000 nM.

For the compound `N#Cc1cnn(C(=O)Cc2ccc(-c3ccccc3)cc2)c1`, the Ki was more than 5000 nM.

Turning to `Cc1cnn(C(=O)Oc2ccc3ccccc3c2)c1`, the Ki is more than 5000 nM.

In the case of `Cc1ccc(COC(=O)n2cccn2)cc1`, the Ki was more than 5000 nM.

Take `O=C(N1CCN(Cc2ccc3ccccc3c2)CC1)n1cc(I)cn1`: the Ki amounted to 0.29 nM.

Regarding `O=C(CCCCCc1ccccc1)n1cccn1`, the Ki is more than 5000 nM.

Regarding `CC(C)(C)OC(=O)N1CCCN(C(=O)n2cccn2)CC1`, the Ki worked out at 620 nM.

Turning to `Cc1cnn(C(=O)NCc2ccc(Oc3ccccc3)cc2)c1`, the Ki stood at 290 nM.

As to `O=C(CCCCCCc1ccccc1)n1cccn1`, the Ki is more than 5000 nM.

As to `Cc1cnn(C(=O)N2CCCN(Cc3cccc(Oc4ccccc4)c3)CC2)c1`, the Ki was determined as 75 nM.

On to `Cc1cnn(C(=O)OCCCCCc2ccccc2)c1`, for which the Ki is more than 5000 nM.

On to `N#Cc1cnn(C(=O)N2CCN(Cc3ccc(Oc4ccccc4)cc3)CC2)c1`, for which the Ki amounted to 0.1 nM.

In the case of `N#Cc1cnn(C(=O)OCCCc2ccccc2)c1`, the Ki was 3500 nM.

Regarding `N#Cc1cnn(C(=O)OCc2ccc3ccccc3c2)c1`, the Ki is more than 5000 nM.

As to `Cc1cnn(C(=O)OCCCc2ccccc2)c1`, the Ki is more than 5000 nM.

`Cc1cnn(C(=O)N2CCN(C(=O)OC(C)(C)C)CC2)c1`: the Ki worked out at 850 nM.

Turning to `O=C(N1CCN(Cc2ccc3ccccc3c2)CC1)n1cc(Br)cn1`, the Ki amounted to 0.47 nM.

As for `Cc1cnn(C(=O)N2CCN(Cc3ccccc3)CC2)c1`, the Ki was found to be 250 nM.

`O=C(N1CCN(Cc2ccc(-c3ccccc3)cc2)CC1)n1cccn1`: the Ki worked out at 12 nM.

Take `O=C(Cc1ccc(-c2ccccc2)cc1)n1cccn1`: the Ki is more than 5000 nM.

On to `Cc1cnn(C(=O)N2CCN(Cc3cccc(Oc4ccccc4)c3)CC2)c1`, for which the Ki was found to be 45 nM.

As for `N#Cc1cnn(C(=O)N2CCCN(Cc3cccc(OCc4ccccc4)c3)CC2)c1`, the Ki turned out to be 0.7 nM.

For `O=C(N1CCN(Cc2ccc(Oc3ccccc3)cc2)CC1)n1cccn1`, the Ki was 9.2 nM.

Consider `Cc1cnn(C(=O)N2CCN(Cc3ccc(Oc4ccccc4)cc3)CC2)c1`, for which the Ki turned out to be 210 nM.

`N#Cc1cnn(C(=O)OCCCCCc2ccccc2)c1`: the Ki was found to be 4200 nM.

In the case of `N#Cc1cnn(C(=O)OCc2ccc(-c3ccccc3)cc2)c1`, the Ki was more than 5000 nM.

Take `Cc1cnn(C(=O)Nc2ccc3ccccc3c2)c1`: the Ki is more than 5000 nM.

`N#Cc1cnn(C(=O)CCCCCc2ccccc2)c1`: the Ki is more than 5000 nM.

`O=C(OCc1ccc(Oc2ccccc2)cc1)n1cccn1`: the Ki was found to be 460 nM.

As for `CN(CCN(C)C(=O)n1cc(C#N)cn1)C(=O)OC(C)(C)C`, the Ki was determined as 16 nM.

In the case of `O=C(N1CCCN(Cc2cccc(OCc3ccccc3)c2)CC1)n1cccn1`, the Ki is 12 nM.

Turning to `O=C(NCc1ccc(-c2ccccc2)cc1)n1cccn1`, the Ki was more than 5000 nM.

For `Cc1cnn(C(=O)Cc2ccc3ccccc3c2)c1`, the Ki is 5000 nM.

Consider `CC(C)(C)OC(=O)N1CCN(C(=O)n2cc(C#N)cn2)CC1`, for which the Ki came to 55 nM.

On to `O=C(OCCCCc1ccccc1)n1cccn1`, for which the Ki stood at 710 nM.

Take `Cc1ccc(COC(=O)n2cc(C)cn2)cc1`: the Ki is more than 5000 nM.

As for `O=C(NCc1ccc(Oc2ccccc2)cc1)n1cccn1`, the Ki came out at 180 nM.

`O=C(N1CCCN(Cc2cccc(Oc3ccccc3)c2)CC1)n1cccn1`: the Ki came out at 6.3 nM.

Take `Cc1ccc(CNC(=O)n2cc(C#N)cn2)cc1`: the Ki was more than 5000 nM.

Consider `O=C(OCc1ccc(OCc2ccccc2)cc1)n1cccn1`, for which the Ki is 260 nM.
